As a reminder, the GI50 is the concentration that inhibits growth by half.

Molecules are shown by their SMILES. Where only a bound is given, the exact number is not on record here.

Common to all, as to format: cell-based
One data set has as its system CNS cancer cell lines. Description: NCI in vitro cytotoxicity, SRB assay, CNS panel. As to conditions: Homo sapiens, read-out: Log LC50 (concentration in mol/L causing 50% lethality) (converted). Here is the method:
(§1) Biological Activity. In vitro biological activity studies were carried out at National Cancer Institute (USA).
(§2) Cytotoxicity. Compounds Va and Vc were evaluated in vitro against sixty human tumour cells derived from nine cancer types (leukemia, non-small-cell lung, colon, CNS, melanoma, ovarian, prostate, and breast cancer). For each compound, dose response curves for each cell line were measured at a minimum of five concentrations at 10 fold dilutions. A protocol of 48 h continuous drug exposure was used, and a sulforhodamine B (SRB) protein assay was used to estimate cell viability or growth. The concentration causing 50% cell growth inhibition (GI50), total cell growth inhibition (TGI 0% growth) and 50% cell death (LC50, −50% growth) compared with the control was calculated.
(§3) Each cancer type represents the average of six to eight different cancer cell lines.
Background: The SRB assay estimates cell density from bound dye.

For data set [1], the system named is sixty human tumour cells derived from nine cancer types. Description: cells. As to conditions: for GI50 / CC50: Homo sapiens, 48 h; for GI50: read-out: Log10 GI50 mean graph midpoint (MG_MID) (converted); for CC50: read-out: Log10 LC50 mean graph midpoint (MG_MID) (converted); for Log10 TGI mean graph midpoint (MG_MID): total cell growth inhibition (0% growth), 48 h continuous drug exposure, SRB. The procedure: as §1, §2

In data set [2] the test system is melanoma cancer cell lines. Kind of data set: NCI in vitro cytotoxicity, SRB assay, melanoma panel. The note with it: Homo sapiens, read-out: Log LC50 (concentration in mol/L causing 50% lethality) (converted). Here is the method:
as §1, §2, §3

Data set [3] relates to leukemia cancer cell lines. Kind of data set: NCI in vitro cytotoxicity, SRB assay, leukemia panel. As to conditions: Homo sapiens, read-out: Log LC50 (concentration in mol/L causing 50% lethality) (converted). Here is the method:
as §1, §2, §3

For another data set, the system named is renal cancer cell lines. Description: NCI in vitro cytotoxicity, SRB assay, renal panel. The note with it: Homo sapiens, read-out: Log LC50 (concentration in mol/L causing 50% lethality) (converted). The procedure:
as §1, §2, §3

In data set [4] the test system is non-small-cell lung cancer cell lines. Description: NCI in vitro cytotoxicity, SRB assay, non-small-cell lung panel. The note with it: Homo sapiens, read-out: Log LC50 (concentration in mol/L causing 50% lethality) (converted). The procedure: as §1, §2, §3
Another data set concerns colon cancer cell lines. Description: NCI in vitro cytotoxicity, SRB assay, colon panel. As to conditions: Homo sapiens, read-out: Log LC50 (concentration in mol/L causing 50% lethality) (converted). The procedure:
as §1, §2, §3

For data set [5], the system named is prostate cancer cell lines. Kind of data set: NCI in vitro cytotoxicity, SRB assay, prostate panel. As to conditions: Homo sapiens, read-out: Log LC50 (concentration in mol/L causing 50% lethality) (converted). Here is the method: as §1, §2, §3
In data set [6] the test system is ovarian cancer cell lines. Kind of data set: NCI in vitro cytotoxicity, SRB assay, ovarian panel. The note with it: Homo sapiens, read-out: Log LC50 (concentration in mol/L causing 50% lethality) (converted). Here is the method:
as §1, §2, §3

The next data set relates to Breast cancer cell lines. Kind of data set: NCI in vitro cytotoxicity, SRB assay, breast panel. The note with it: Homo sapiens, read-out: Log LC50 (concentration in mol/L causing 50% lethality) (converted). The procedure: as §1, §2, §3

Take `COc1cc2c(cc1OCCCOc1cc3c(cc1OC)C(=O)N1CCC[C@H]1CN3)N=C[C@@H]1CCCN1C2=O` [Compound Va, 7-Methoxy-8-{3-[7-methoxy-(11aS)-1,2,3,10,11,11a-hexahydro-5H-pyrrolo[2,1-c][1,4]benzodiazepine-5-one-8-yloxy]propoxy}-(11aS)-1,2,3,11a-tetrahydro-5H-pyrrolo[2,1-c][1,4]benzodiazepine-5-one]: the CC50 in the data set on CNS cancer cell lines is 32.4 µM; in [1], 33.1 µM; in data set [2] it was 3.55 µM; in data set [3], 83.2 µM; with renal cancer cell lines it was 63.1 µM; in data set [4] it was 38.9 µM. Also, the CC50 in the data set with colon cancer cell lines was 25.7 µM; in [5], 83.2 µM; in data set [6], 70.8 µM; with Breast cancer cell lines, 43.7 µM. In addition, the “cytotoxic / anticancer activity in words” value in [1] is “slightly higher activity”. For the same compound, the 50% growth inhibitory concentration (GI50) in data set [1] was 0.158 µM. Moreover, the “Log10 TGI mean graph midpoint (MG_MID)” value in [1] is on record as −5.73.

Consider `COc1cc2c(cc1OCCCCCOc1cc3c(cc1OC)C(=O)N1CCC[C@H]1CN3)N=C[C@@H]1CCCN1C2=O` [Compound Vc, 7-Methoxy-8-{5-[7-methoxy-(11aS)-1,2,3,10,11,11a-hexahydro-5H-pyrrolo[2,1-c][1,4]benzodiazepine-5-one-8-yloxy]pentyloxy}-(11aS)-1,2,3,11a-tetrahydro-5H-pyrrolo[2,1-c][1,4]benzodiazepine-5-one], for which the CC50 was 81.3 µM with CNS cancer cell lines; 70.8 µM in data set [1]; 38 µM in data set [2]; 34.7 µM in data set [3]; 95.5 µM with renal cancer cell lines; 72.4 µM in data set [4]. The CC50 in the data set on colon cancer cell lines is 91.2 µM; in data set [5] it was at least 100 µM; in data set [6] it was 97.7 µM; in the data set with Breast cancer cell lines it was 89.1 µM. In addition, the “cytotoxic / anticancer activity in words” value in data set [1] was “interesting profile of activity and selectivity for various cell lines”. In [1], the GI50 was 5.13 µM. Also, in data set [1], the “Log10 TGI mean graph midpoint (MG_MID)” value was −4.55.

(Values after patent publication US6884799B2, “Non-cross-linking pyrrolo[2,1-c][1,4]benzodiazepines and process thereof” (Council of Scientific and Industrial Research, priority 2003, dated 2005).)
